Key:
Test in all cases: relative viability (nuclei count vs DMSO), 5 days (fraction); higher = more cells survive
Dovitinib + Vorinostat = compound: CN1CCN(c2ccc3nc(-c4c(N)c5c(F)cccc5[nH]c4=O)[nH]c3c2)CC1 [Dovitinib] + O=C(CCCCCCC(=O)Nc1ccccc1)NO [Vorinostat] (partner 1 µM)
In short: (§1)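 Relative viability equals treated-well nuclei counts divided by vehicle-well nuclei counts. Counts came from 4× images of lung cancer cell lines grown in 1536-well plates for 5 days after pin-tool dosing on the day after seeding. Dosing used one drug alone or a fixed anchor-drug dose plus five library-drug doses (not always all listed) in √10 steps, and values are medians of duplicate plates.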

Dovitinib + Crizotinib = compound: CN1CCN(c2ccc3nc(-c4c(N)c5c(F)cccc5[nH]c4=O)[nH]c3c2)CC1 [Dovitinib] + C[C@@H](Oc1cc(-c2cnn(C3CCNCC3)c2)cnc1N)c1c(Cl)ccc(F)c1Cl [Crizotinib] (partner 1 µM)
In short: as §1

Dovitinib + Tozasertib = compound: CN1CCN(c2ccc3nc(-c4c(N)c5c(F)cccc5[nH]c4=O)[nH]c3c2)CC1 [Dovitinib] + Cc1cc(Nc2cc(N3CCN(C)CC3)nc(Sc3ccc(NC(=O)C4CC4)cc3)n2)n[nH]1 [Tozasertib] (partner 0.1 µM)
In short: as §1

Dovitinib + Navitoclax = compound: CN1CCN(c2ccc3nc(-c4c(N)c5c(F)cccc5[nH]c4=O)[nH]c3c2)CC1 [Dovitinib] + CC1(C)CCC(c2ccc(Cl)cc2)=C(CN2CCN(c3ccc(C(=O)NS(=O)(=O)c4ccc(N[C@H](CCN5CCOCC5)CSc5ccccc5)c(S(=O)(=O)C(F)(F)F)c4)cc3)CC2)C1 [Navitoclax] (partner 0.5 µM)
In short: as §1

| Cell Line | relative viability (Dovitinib + Vorinostat; first compound 0.02 µM) | relative viability (Dovitinib + Vorinostat; first compound 0.06325 µM) | relative viability (Dovitinib + Vorinostat; first compound 0.2 µM) | relative viability (Dovitinib + Vorinostat; first compound 0.6325 µM) | relative viability (Dovitinib + Vorinostat; first compound 2 µM) | relative viability (Dovitinib + Crizotinib; first compound 0.02 µM) | relative viability (Dovitinib + Crizotinib; first compound 0.06325 µM) | relative viability (Dovitinib + Crizotinib; first compound 0.2 µM) | relative viability (Dovitinib + Crizotinib; first compound 0.6325 µM) | relative viability (Dovitinib + Crizotinib; first compound 2 µM) | relative viability (Dovitinib + Tozasertib; first compound 0.02 µM) | relative viability (Dovitinib + Tozasertib; first compound 0.06325 µM) | relative viability (Dovitinib + Tozasertib; first compound 0.2 µM) | relative viability (Dovitinib + Tozasertib; first compound 0.6325 µM) | relative viability (Dovitinib + Tozasertib; first compound 2 µM) | relative viability (Dovitinib + Navitoclax; first compound 0.02 µM) | relative viability (Dovitinib + Navitoclax; first compound 0.06325 µM) | relative viability (Dovitinib + Navitoclax; first compound 0.2 µM) | relative viability (Dovitinib + Navitoclax; first compound 0.6325 µM) | relative viability (Dovitinib + Navitoclax; first compound 2 µM) |
| --- | --- | --- | --- | --- | --- | --- | --- | --- | --- | --- | --- | --- | --- | --- | --- | --- | --- | --- | --- | --- |
| CAL-12T | 0.754 | 0.73 | 0.926 | 0.829 | 0.764 | 0.532 | 0.628 | 0.654 | 0.635 | 0.661 | 0.28 | 0.3 | 0.341 | 0.262 | 0.285 | 1.24 | 1.12 | 1.43 | 1.17 | 1.42 |
| EPLC-272H | 0.564 | 0.522 | 0.434 | 0.402 | 0.367 | 0.799 | 0.994 | 0.981 | 1.09 | 0.972 | 0.343 | 0.267 | 0.263 | 0.343 | 0.32 | 1.05 | 0.993 | 1.24 | 1.49 | 0.97 |
| NCI-H2405 | 0.99 | 0.961 | 1.07 | 1.06 | 1.17 | 0.87 | 0.762 | 0.862 | 0.773 | 0.935 | 0.732 | 0.722 | 0.782 | 0.705 | 0.883 | 0.897 | 0.836 | 0.86 | 0.807 | 1.32 |
| HCC-15 | 0.931 | 0.873 | 0.815 | 0.837 | 0.85 | 0.756 | 0.841 | 0.719 | 0.79 | 0.812 | 0.349 | 0.439 | 0.416 | 0.36 | 0.441 | 0.777 | 0.701 | 0.707 | 0.708 | 0.7 |
| PC-3 [JPC-3] | 0.888 | 0.77 | 0.948 | 0.945 | 0.914 | 0.928 | 0.923 | 0.963 | 1.01 | 0.984 | 0.838 | 0.884 | 0.892 | 0.889 | 0.83 | 0.834 | 0.841 | 0.861 | 0.802 | 0.777 |
| NCI-H1944 | 0.502 | 0.702 | 0.646 | 0.583 | 0.64 | 1.02 | 1.13 | 1.05 | 1.08 | 1.18 | 0.235 | 0.258 | 0.225 | 0.272 | 0.255 | 1.01 | 0.995 | 1.02 | 1.08 | 1.1 |
| HARA | 0.553 | 0.542 | 0.645 | 0.676 | 0.569 | 1.07 | 1.08 | 0.985 | 1.1 | 1.07 | 0.117 | 0.11 | 0.107 | 0.102 | 0.112 | 1.16 | 1.16 | 1.12 | 1.15 | 1.15 |
| NCI-H2126 | 0.811 | 0.819 | 0.798 | 0.876 | 0.838 | 1.03 | 1.04 | 1.05 | 1.02 | 1.08 | 0.833 | 0.807 | 0.951 | 0.794 | 0.833 | 0.857 | 0.886 | 0.874 | 0.81 | 0.873 |
| LXF-289 | 0.781 | 0.836 | 0.807 | 0.847 | 0.746 | 0.736 | 0.816 | 0.789 | 0.794 | 0.838 | 0.214 | 0.228 | 0.195 | 0.189 | 0.171 | 0.909 | 0.929 | 0.945 | 0.941 | 0.858 |
| NCI-H460 | 0.682 | 0.77 | 0.729 | 0.711 | 0.711 | 0.852 | 1.02 | 0.869 | 0.941 | 0.919 | 0.495 | 0.472 | 0.421 | 0.418 | 0.461 | 0.961 | 1.14 | 1.02 | 1.08 | 1.14 |
| NCI-H2170 | 0.752 | 0.783 | 0.819 | 0.839 | 0.783 | 1.12 | 1.23 | 1.23 | 1.14 | 1.2 | 0.658 | 0.856 | 0.733 | 0.787 | 0.787 | 0.58 | 0.63 | 0.756 | 0.531 | 0.612 |
| NCI-H2009 | 0.72 | 0.744 | 0.747 | 0.736 | 0.829 | 0.919 | 1.06 | 1.04 | 1.03 | 1.12 | 0.698 | 0.761 | 0.782 | 0.683 | 0.886 | 1.14 | 1.15 | 1.2 | 1.19 | 1.19 |

Reference: the supplement of paper PMC10307832
